In patent US20130243794A1 (priority 2010, published 2013):
Entries after “also recorded” stand apart in the source; their conditions may differ.

Experiments:
baboons = conditions: in vivo
Bacillus anthracis = system: Bacillus anthracis; parameters: species or system baboons (Papio c. cynocephalus); conditions: in vivo

Substance: Shiga toxin 1 [ST1]
- circulating bDNA after toxin administration (baboons): insignificant levels

Substance: activated protein C [aPC]
- blood cultures (bacterial colony counts) (Bacillus anthracis): no effect; also recorded: no significant difference between groups
- decreases in fibrinogen (and in platelets) (Bacillus anthracis): not mitigated
- liver and kidney function (ALT, AST, BUN, creatinine) (Bacillus anthracis): markedly spared
- peak bDNA load (16S bacterial DNA, plasma qPCR) (Bacillus anthracis): no significant effect
- peak plasma mtDNA (CytB) level during anthrax bacteremia (Bacillus anthracis): approximately 200 ng/mL
- plasma bDNA (16S-rDNA) level and fall off over time (Bacillus anthracis): essentially identical fall off; also recorded: no effect; also recorded: does not affect
- plasma mtDNA levels after resolution of bacteremia (Bacillus anthracis): mtDNA levels began falling after 24 hours; also recorded: plasma mtDNA levels decayed; also recorded: reduction in mtDNA
- respiratory rate (RR) / tachypnea (Bacillus anthracis): RR remained normal; also recorded: prevents tachypnea; also recorded: RR was unchanged
- survival (Bacillus anthracis): the animals survived; also recorded: all these animals survived
